Consider 19 compounds from ChEMBL document CHEMBL4609991, “Discovery of N-ethylpyridine-2-carboxamide derivatives as a novel scaffold for orally active γ-secretase modulators” (Bioorg Med Chem, 2020).

A word on the microsomal CLint: it is a measure of how fast metabolising enzymes remove a compound, apart from limits set by blood flow. The term Kp denotes the ratio of the level in a tissue or fluid to that in plasma or blood. One may read the inhibition in vivo as the drop in the measured response relative to a control, in per cent. As a reminder, the pIC50 is the negative decadic logarithm of the IC50, by convention in mol/L.

pIC50: −log10 of the molar value. Activity calls are given as the source filed them. The rule behind the calls is not given here.

One data set is described as follows: in vitro. Conditions: CD1, mouse, liver microsomes.
The nature of data set [1]: […], ratio of drug concentration in brain to plasma at steady state in ddY mouse at 30 mg/kg, po by LC-MS/MS analysis. Type of data set: ADME, organism-based.
Data set [2] relates to Mus musculus. In words: In vivo modulatory activity of gamma secretase in ddY mouse assessed as reduction in Abeta42 levels in brain at 30 mg/kg, po measured after 3 hrs by ELISA relative to control. Type of data set: functional. In general terms: In an ELISA, binding on a coated surface is turned into a signal by an enzyme label.
The nature of data set [3]: Drug concentration in ddY mouse plasma at 30 mg/kg, po measured after 3 hrs by LC-MS/MS analysis. Type of data set: ADME, organism-based.
The nature of data set [4]: Ratio of drug concentration in ddY mouse brain to IC50 for gamma secretase in human SKNBE2 cells assessed as decrease in Abeta42 levels incubated for 6 hrs by sandwich ELISA. Type of data set: ADME, cell-based.
Data set [5] is described as follows: Drug concentration in ddY mouse brain at 30 mg/kg, po measured after 3 hrs by LC-MS/MS analysis. The class given is ADME, organism-based. Particulars: read-out: Ct.
In the next data set the target is Gamma-secretase. In words: Modulatory activity of gamma secretase in human SKNBE2 cells assessed as decrease in Abeta42 levels incubated for 6 hrs by sandwich ELISA. The class given is cell-based.
Data set [6] has as its target T1, CYP3A4 (Homo sapiens, UniProt P08684). Briefly: Inhibition of CYP3A4 in human liver microsomes assessed as residual activity at 5 uM using midazolam as substrate preincubated with enzyme for 30 mins followed by incubation with substrate for 20 mins by LC-MS/MS analysis relative to control. The class given is ADME. Conditions: probe midazolam, read-out: Activity. For orientation: Liver microsomes are a subcellular fraction often used to study metabolism.

Data set [7] deals with T1, CYP3A4. Briefly: Inhibition of CYP3A4 in human liver microsomes assessed as residual activity at 5 uM using midazolam as substrate measured after 20 mins by LC-MS/MS analysis relative to control. The class given is ADME. Conditions: probe midazolam, read-out: Activity.
The target in data set [8] is Gamma-secretase (Homo sapiens) (UniProt Q96BI3+Q9NZ42+Q8WW43+P49768+Q92542+P49810). In words: Inhibition of gamma-secretase in human H4 cells overexpressing human wild-type APP assessed as beta-CTF level incubated for 24 hrs by ELISA. Type of data set: cell-based.
Data set [9] has as its system Mus musculus. In words: In vivo modulatory activity of gamma secretase in ddY mouse assessed as reduction in Abeta42 levels in plasma at 30 mg/kg, po measured after 3 hrs by ELISA relative to control. Type of data set: functional.

T1 sequence (P08684 whole entry): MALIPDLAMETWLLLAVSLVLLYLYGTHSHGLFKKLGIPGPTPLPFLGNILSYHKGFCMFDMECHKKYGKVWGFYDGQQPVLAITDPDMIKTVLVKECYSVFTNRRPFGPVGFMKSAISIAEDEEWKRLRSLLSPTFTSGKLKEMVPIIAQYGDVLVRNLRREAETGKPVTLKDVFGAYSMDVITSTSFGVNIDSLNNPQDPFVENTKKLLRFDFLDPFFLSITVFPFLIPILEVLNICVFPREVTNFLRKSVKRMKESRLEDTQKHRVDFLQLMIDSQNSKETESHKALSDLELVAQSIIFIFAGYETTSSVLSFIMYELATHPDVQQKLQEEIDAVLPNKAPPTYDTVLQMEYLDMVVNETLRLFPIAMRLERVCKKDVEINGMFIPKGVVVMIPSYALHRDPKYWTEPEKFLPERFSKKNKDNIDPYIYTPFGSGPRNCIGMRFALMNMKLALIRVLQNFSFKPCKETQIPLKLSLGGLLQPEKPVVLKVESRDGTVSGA

The compound `CCNC(=O)c1ccc(-c2c(CO)nc3c(OCc4ccccc4)cccn23)cn1` gave an intrinsic clearance (microsomal CLint) at 0.75 h, 0.2 µM in “in vitro” of 75.7 µL/min/mg.

As to `CCNC(=O)c1ccc(-c2c(C)nc3c(OCc4cccc(-c5ccccc5)c4)cccn23)cn1.Cl`, the microsomal CLint at 0.75 h, 0.2 µM in the data set “in vitro” is 367 µL/min/mg. In addition, the Kp in [1] is 0.12. For the same compound, the inhibition in vivo at 30 mg/kg in the data set with Mus musculus [2] was determined as 6%. Also, the concentration at 3 h stood at 6.6 µM in data set [3] and 0.77 µM in data set [5]. Besides, the Ratio in [4] worked out at 12 nmol/g/uM. In addition, the pIC50 at Gamma-secretase is 7.21.

In the data set “in vitro”, `CCNC(=O)c1ccc(-c2c(C)nc3c(OCc4c(C)cc(C)cc4C)cccn23)cn1` had a microsomal CLint at 0.75 h, 0.2 µM of over 1000 µL/min/mg. For the same compound, the pIC50 on Gamma-secretase is 6.77.

Consider `CCN1Cc2cc(-c3c(C)nc4c(OCc5ccccc5)cccn34)ccc2C1=O.Cl`, for which the Kp in [1] was 0.72. Further, in the data set on Mus musculus [2], the inhibition in vivo at 30 mg/kg came out at 2%. In addition, in data set [4], the Ratio worked out at 1.8 nmol/g/uM.

`CCNC(=O)c1ccc(-c2c(C)nc3c(OCc4ccc(C)cc4)cccn23)cn1` registered an intrinsic metabolic clearance (microsomal CLint) at 0.75 h, 0.2 µM in “in vitro” of 438 µL/min/mg. The negative logarithm of the IC50 (pIC50) at Gamma-secretase is 6.43.

The compound `CCN1C(=O)c2ccc(-c3c(C)nc4c(OCc5ccccc5)cccn34)cc2C1(C)C` showed a microsomal CLint at 0.75 h, 0.2 µM in the data set “in vitro” of over 1000 µL/min/mg. Also, the negative-log IC50 (pIC50) at Gamma-secretase is under 5.70.

For `CCNC(=O)c1ccc(-c2c(C)nc3c(OCc4ccc(-c5ccccc5)cc4)cccn23)cn1.Cl`, in “in vitro”, the microsomal CLint at 0.75 h, 0.2 µM turned out to be 84.7 µL/min/mg. Further, the activity at 20 min, 5 µM at CYP3A4 [6] was 83%; on CYP3A4 [7], 101%. Further, the Kp in [1] stood at 0.45. The inhibition in vivo at 30 mg/kg was determined as 36% in the data set with Mus musculus [2] and 66% in the data set with Mus musculus [9]. In addition, the concentration at 3 h in data set [3] worked out at 10 µM; in data set [5], 4.6 µM. Besides, the Ratio in data set [4] is on record as 51 nmol/g/uM. For the same compound, the inhibition entry in data set [8] is “inactive”. For the same compound, the pIC50 at Gamma-secretase was 7.04.

On to `CCNC(=O)c1ccc(-c2c(C#N)nc3c(OCc4ccccc4)cccn23)cn1`, for which the microsomal CLint at 0.75 h, 0.2 µM in the data set “in vitro” is 318 µL/min/mg.

For the compound `CCN1CCc2cc(-c3c(C)nc4c(OCc5ccccc5)cccn34)ccc2C1=O`, the pIC50 on Gamma-secretase was under 4.30.

With `CCNC(=O)c1ccc(-c2c(C)nc3c(OCc4ccc(-n5cncn5)cc4)cccn23)cn1`, the microsomal CLint at 0.75 h, 0.2 µM in “in vitro” is 49.9 µL/min/mg.

In the case of `CCNC(=O)c1ccc(-c2c(C)nc3c(OCc4cccc(C(=O)N(C)C)c4)cccn23)cn1`, the microsomal CLint at 0.75 h, 0.2 µM in “in vitro” came to 77.9 µL/min/mg. Further, at Gamma-secretase, the pIC50 is under 5.00.

In “in vitro”, `CCNC(=O)c1ccc(-c2c(C)nc3c(OCc4ccccc4)cccn23)cn1` displayed a microsomal CLint at 0.75 h, 0.2 µM of 324 µL/min/mg. Moreover, the negative logarithm of the IC50 (pIC50) on Gamma-secretase was 6.24.

For `CCNC(=O)c1ccc(-c2c(C)nc3c(OCc4ccccc4)cccn23)cc1F`, the intrinsic clearance (microsomal CLint) at 0.75 h, 0.2 µM in the data set “in vitro” came to 500 µL/min/mg. On Gamma-secretase, the pIC50 is under 4.30.

In “in vitro”, `CCNC(=O)c1ccc(-c2c(COC)nc3c(OCc4ccccc4)cccn23)cn1` showed a microsomal CLint at 0.75 h, 0.2 µM of 350 µL/min/mg. The pIC50 on Gamma-secretase is 5.21.

Take `CCNC(=O)c1ccc(-c2c(C)nc3c(OCCc4ccccc4)cccn23)cn1`: the microsomal CLint at 0.75 h, 0.2 µM in the data set “in vitro” was over 1000 µL/min/mg. In addition, the pIC50 on Gamma-secretase was 5.96.

The compound `CCNC(=O)c1ccc(-c2c(C)nc3c(OCc4ccccc4-c4ccccc4)cccn23)cn1` registered a microsomal CLint at 0.75 h, 0.2 µM in the data set “in vitro” of over 1000 µL/min/mg. In addition, the pIC50 at Gamma-secretase is 6.41.

In the case of `CCNC(=O)c1ccc(-c2c(C)nc3c(OCc4ccccc4F)cccn23)cn1.Cl`, the microsomal CLint at 0.75 h, 0.2 µM in the data set “in vitro” is 228 µL/min/mg. The Kp in data set [1] was 0.27. Moreover, the inhibition in vivo at 30 mg/kg is 6% in the data set on Mus musculus [2] and 16% in the data set on Mus musculus [9]. Also, the concentration at 3 h in data set [3] was 2.7 µM; in data set [5], 0.75 µM. Further, in [4], the Ratio is 5 nmol/g/uM. On Gamma-secretase, the pIC50 is 6.82.

For `CCNC(=O)c1ccc(-c2c(C)nc3c(OCc4cccc(F)c4)cccn23)cn1`, in “in vitro”, the microsomal CLint at 0.75 h, 0.2 µM was found to be 295 µL/min/mg. Besides, at Gamma-secretase, the pIC50 was 6.62.

In the data set “in vitro”, `CCNC(=O)c1ccc(-c2c(C)nc3c(OCc4ccc(C)cc4C)cccn23)cn1` displayed a microsomal CLint at 0.75 h, 0.2 µM of 652 µL/min/mg.
